From US20040058309A1, “Plasma supplement and use in liver assist systems” (priority 2003, published 2004)
Entries after “also recorded” stand apart in the source; their conditions may differ. Where two headings read alike, the source gives them in different places.

Key:
Rat hepatocytes [1] = experiment: Albumin synthesis rate of rat hepatocytes (collagen sandwich) exposed to supplemented citrated human plasma; assay type: cell-based; conditions: for Albumin synthesis (in words) vs plasma with BME amino acid supplementation: 10 mM as only amino acid supplementation of citrated plasma
Method: (§1) Type I collagen was prepared from Lewis rat tail tendons as previously described in Dunn et al. (supra). […] Six-well culture plates were coated with 0.5 ml of collagen gelling solution and the coated plates were incubated at 37° C. for 1 hour to allow for gelation. The hepatocytes were suspended in culture medium and seeded at a density of 1.0×10^6 cell per well. The standard hepatocyte culture medium consisted of DMEM supplemented with 10% FBS, 0.5 U/ml insulin, 14 ng/ml glucagon, 20 ng/ml EGF, 7.5 μg/ml hydrocortisone, 200 U/ml penicillin, and 200 μg/ml streptomycin. After incubating at 37° C. in a humidified gas mixture of 90% air/10% CO2 for 24 hours, the culture medium was removed and the cells were overlaid with a second 0.5 ml layer of collagen gelling solution to form the collagen sandwich. After gelling for 45 minutes at 37° C., 1 ml of fresh medium was added. Fresh medium (1 ml) was supplied to the cultures daily after removal of the previous day's medium. The hepatocytes were cultured for 6 days in standard culture medium prior to plasma exposure.
(§2) Expired plasma from a blood bank was pooled, aliquoted, and kept frozen until used for experiments. Plasma supplements were prepared in concentrated form and added individually to plasma as described in the following examples.
(§3) In each set of experiments, components of the supplementation to be included or excluded were designated according to the result from prior experiments. On the 7th day after isolation, the culture medium was removed and hepatocytes were fed with 1 ml of plasma. Cells were fed with fresh plasma daily thereafter. Control cultures were maintained in hepatocyte culture medium throughout. For the hormone study only, the 6-day-old collagen double-gel cultures were washed 10 times with unsupplemented DMEM to remove residual hormones in the collagen gel, and twice with medium or plasma identical to the following experimental condition.
(§4) Culture supernatants were collected daily after a 24 hour culture period. […] A standard curve was derived using background culture medium prepared by incubation with an empty collagen gel for the same period as the cell culture, and chromatographically purified rat albumin (Cappel Laboratories). Urea concentration in standard culture medium and in plasma was measured by the specific reaction of diacetyl monoxime with urea (Blood Urea Nitrogen Assay Kit, Sigma Diagnostics).
(§5) Rates of secretion were normalized to the number of cells initially seeded. […] The statistical significance of observed differences was determined by two-way analysis of variance and post hoc Tukey's test. An alpha value of 5% was considered significant.

Rat hepatocytes [2] = experiment: Urea synthesis rate of rat hepatocytes (collagen sandwich) exposed to supplemented citrated human plasma; assay type: cell-based
Method: as §1, §2, §3, §4, §5

[3] = citrated human plasma + 5× medium concentrate, day 5 of plasma exposure, vs fully supplemented plasma

| Compound | Effect on albumin synthesis of removing (or reducing) the component in the plasma supplementation (Rat hepatocytes [1]; [3]) | Effect on urea synthesis of removing (or reducing) the component in the plasma supplementation (Rat hepatocytes [2]; [3]) | other results |
| --- | --- | --- | --- |
| NC(=O)CC[C@H](N)C(=O)O [glutamine] |  |  | Albumin synthesis (in words) vs plasma with BME amino acid supplementation (Rat hepatocytes [1]; day 5 of plasma exposure): significantly less albumin; Urea synthesis rate (in words) (Rat hepatocytes [2]; 10 mM as only amino acid supplementation of citrated plasma, day 5 of plasma exposure): maintained |
| glucagon [reference compound] | significantly reduced | decreased significantly |  |
| [Cl-].[Cl-].[Mg+2] [magnesium chloride] |  |  | Effect on albumin synthesis of removing (or reducing) the component in the plasma supplementation (Rat hepatocytes [1]): significantly less; Effect on urea synthesis of removing (or reducing) the component in the plasma supplementation (Rat hepatocytes [2]): significantly less |
| insulin [reference compound] | significantly reduced |  |  |
| [Cl-].[K+] [potassium chloride] | no significant effect | no significant effect |  |
| NCC(=O)O [glycine] |  |  | Albumin synthesis (in words) vs plasma with BME amino acid supplementation (Rat hepatocytes [1]; day 5 of plasma exposure): significantly less albumin; Decrease of urea synthesis rate (Rat hepatocytes [2]; 10 mM as only amino acid supplementation of citrated plasma, day 5 of plasma exposure, vs BME amino acids): 43% |
| [Ca+2].[Cl-].[Cl-] [calcium chloride] |  |  | Effect on albumin synthesis of removing (or reducing) the component in the plasma supplementation (Rat hepatocytes [1]): significantly less; Effect on urea synthesis of removing (or reducing) the component in the plasma supplementation (Rat hepatocytes [2]): significantly less |
| [Cl-].[Na+] [sodium chloride] | increased; also recorded: enhanced | increased; also recorded: enhanced |  |
| C[C@]12CCC(=O)C=C1CC[C@@H]1[C@@H]2[C@@H](O)C[C@@]2(C)[C@H]1CC[C@]2(O)C(=O)CO [hydrocortisone, reference compound] | significantly reduced |  |  |
